According to PubChem BioAssay AID252 (DTP/NCI, 2004):
Where “and” joins values, the source holds several entries; their conditions need not be identical. Equal entries are not always repeated. Inconclusive results and toxic doses are left out.

System: BDF1 mice, intracerebral L1210 leukemia, survival T/C
Assay: NCI In Vivo Anticancer Drug Screen. Data for tumor model L1210 Leukemia (intracerebral) in B6D2F1 (BDF1) mice
Conditions: endpoint: mean survival time, higher = longer survival
Procedure, shortened: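 Transplantable tumour-bearing mice, compound-treated vs vehicle controls; read-out survival, reported as T/C ratio.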

SMILES: N#Cc1ccc(NC(=O)N(CCCl)N=O)cc1
- T/C (dose: 9.37 mg/kg/injection, schedule: Q01DX001 (ip), vehicle: carboxymethylcellulose (CMC)): 95 % of control
- T/C (dose: 18.75 mg/kg/injection, schedule: Q01DX001 (ip), vehicle: carboxymethylcellulose (CMC)): 91 % of control
- T/C (dose: 37.5 mg/kg/injection, schedule: Q01DX001 (ip), vehicle: carboxymethylcellulose (CMC)): 104 % of control
- T/C (dose: 75.0 mg/kg/injection, schedule: Q01DX001 (ip), vehicle: carboxymethylcellulose (CMC)): 102 % of control
- T/C (dose: 150.0 mg/kg/injection, schedule: Q01DX001 (ip), vehicle: carboxymethylcellulose (CMC)): 90 % of control

SMILES: C1CN1c1nc(N2CC2)nc(N2CC2)n1
- T/C (dose: 0.15 mg/kg/injection, schedule: Q01DX Z (ip), vehicle: saline): 113 % of control
- T/C (dose: 0.25 mg/kg/injection, schedule: Q01DX Z (ip), vehicle: saline): 119 % of control
- T/C (dose: 0.5 mg/kg/injection, schedule: Q01DX Z (ip), vehicle: saline): 160 % of control
- T/C (dose: 0.75 mg/kg/injection, schedule: Q01DX Z (ip), vehicle: saline): 156 % of control
- T/C (dose: 1.0 mg/kg/injection, schedule: Q01DX Z (ip), vehicle: saline): 124 % of control
- T/C (dose: 1.5 mg/kg/injection, schedule: Q01DX Z (ip), vehicle: saline): 97 % of control
- T/C (dose: 2.1 mg/kg/injection, schedule: Q01DX001 (ip), vehicle: saline): 153 % of control
- T/C (dose: 3.2 mg/kg/injection, schedule: Q01DX001 (ip), vehicle: saline): 182 % of control

SMILES: O=C1C(NCCO)=C(N2CC2)C(=O)C(NCCO)=C1N1CC1
- T/C (dose: 0.18 mg/kg/injection, schedule: Q01DX009 (ip), vehicle: saline): 108 % of control and 116 % of control
- T/C (dose: 0.37 mg/kg/injection, schedule: Q01DX009 (ip), vehicle: saline): 114 % of control
- T/C (dose: 1.5 mg/kg/injection, schedule: Q01DX009 (ip), vehicle: saline): 98 % of control

SMILES: CN(N=O)C(=O)NCCCCNC(=O)N(C)N=O
- T/C (dose: 250.0 mg/kg/injection, schedule: Q01DX001 (ip), vehicle: carboxymethylcellulose (CMC)): 103 % of control
- T/C (dose: 300.0 mg/kg/injection, schedule: Q01DX001 (ip), vehicle: carboxymethylcellulose (CMC)): 110 % of control
- T/C (dose: 500.0 mg/kg/injection, schedule: Q01DX001 (ip), vehicle: carboxymethylcellulose (CMC)): 102 % of control
- T/C (dose: 750.0 mg/kg/injection, schedule: Q01DX001 (ip), vehicle: carboxymethylcellulose (CMC)): 110 % of control

SMILES: C[n+]1ccc(Nc2ccc(NC(=O)c3ccc(Nc4cc[n+](C)c5ccc(N)cc45)cc3N)cc2)cc1
- T/C (dose: 1.0 mg/kg/injection, schedule: Q01DX009 (ip), vehicle: water): 93 % of control
- T/C (dose: 2.0 mg/kg/injection, schedule: Q01DX009 (ip), vehicle: water): 97 % of control
- T/C (dose: 4.0 mg/kg/injection, schedule: Q01DX009 (ip), vehicle: water): 104 % of control
- T/C (dose: 8.0 mg/kg/injection, schedule: Q01DX009 (ip), vehicle: water): 112 % of control

SMILES: N#CCCN1c2ccccc2Sc2ccccc21
- T/C (dose: 12.5 mg/kg/injection, schedule: Q04DX003 (ip), vehicle: Klucel (hydroxypropylcellulose) (HPC)): 100 % of control
- T/C (dose: 25.0 mg/kg/injection, schedule: Q04DX003 (ip), vehicle: Klucel (hydroxypropylcellulose) (HPC)): 96 % of control
- T/C (dose: 50.0 mg/kg/injection, schedule: Q04DX003 (ip), vehicle: Klucel (hydroxypropylcellulose) (HPC)): 109 % of control
- T/C (dose: 100.0 mg/kg/injection, schedule: Q04DX003 (ip), vehicle: Klucel (hydroxypropylcellulose) (HPC)): 104 % of control
- T/C (dose: 200.0 mg/kg/injection, schedule: Q04DX003 (ip), vehicle: Klucel (hydroxypropylcellulose) (HPC)): 98 % of control

SMILES: O=NN(CCO)C(=O)Nc1c[nH]c(=O)[nH]c1=O
- T/C (dose: 173.0 mg/kg/injection, schedule: Q01DX001 (ip), vehicle: carboxymethylcellulose (CMC)): 100 % of control
- T/C (dose: 260.0 mg/kg/injection, schedule: Q01DX001 (ip), vehicle: carboxymethylcellulose (CMC)): 102 % of control
- T/C (dose: 400.0 mg/kg/injection, schedule: Q01DX001 (ip), vehicle: carboxymethylcellulose (CMC)): 106 % of control

SMILES: [N-]=[N+]=CC(=O)NCC(=O)NN
- T/C (dose: 300.0 mg/kg/injection, schedule: Q01DX Z (ip), vehicle: water): 101 % of control
- T/C (dose: 400.0 mg/kg/injection, schedule: Q01DX Z (ip), vehicle: water): 87 % of control
- T/C (dose: 500.0 mg/kg/injection, schedule: Q01DX Z (ip), vehicle: water): 87 % of control

SMILES: CCN(CC)CCNc1ccc(CO)c2sc3ccccc3c(=O)c12
- T/C (dose: 1.0 mg/kg/injection, schedule: Q01DX005 (ip), vehicle: saline): 97 % of control
- T/C (dose: 2.0 mg/kg/injection, schedule: Q01DX005 (ip), vehicle: saline): 96 % of control
- T/C (dose: 4.0 mg/kg/injection, schedule: Q01DX005 (ip), vehicle: saline): 100 % of control
- T/C (dose: 8.0 mg/kg/injection, schedule: Q01DX005 (ip), vehicle: saline): 98 % of control
- T/C (dose: 16.0 mg/kg/injection, schedule: Q01DX005 (ip), vehicle: saline): 100 % of control
- T/C (dose: 32.0 mg/kg/injection, schedule: Q01DX005 (ip), vehicle: saline): 107 % of control
- T/C (dose: 64.0 mg/kg/injection, schedule: Q01DX005 (ip), vehicle: saline): 123 % of control
